Experimental data: patent EP0229011A1, “Trisubstituted triazoles” (CIBA-GEIGY AG, priority 1986, dated 1987)

Columns and labels:
[1] = system: Elektroschock-induzierte Konvulsionen; experiment: Protection against electroshock-induced convulsions (rat); type: in vivo; conditions: po, Ratte, read-out: ED₅₀
Excerpt: (§1) Die neuen Verbindungen besitzen wertvolle pharmakologische Eigenschaften, insbesondere eine ausgeprägte antikonvulsive Wirksamkeit mit neuartigem Wirkungsspektrum. Die ausgezeichnete antikonvulsive Wirksamkeit der erfindungsgemäss bereitgestellten Verbindungen zeigt sich insbesondere an Primaten. […] Das neuartige Wirkungsspektrum der erfindungsgemässen Verbindungen kann beispielsweise durch ihr Verhalten in den nachstehenden pharmakologischen und biochemischen Epilepsiemodellen charakterisiert werden: • 1) Schutzwirkung gegen Elektroschock-induzierte Konvulsionen (Maus, Ratte): deutliche Aktivität in Dosen ab etwa 30 mg/kg p.o., für z.B. 5-Amino-1-(4-hexyl)-1M-1,2,3-triazol-4-carboxamid ED₅₀ = 100 mg/kg p.o. (Maus) bzw. […] Wirkung auf die GABA-Neuro-transmission und kein nachweisbarer Einfluss auf den GABA-Kata-bolismus; • 6) Kindling-Epilepsiemodell (Ratte): die Entwicklung sowohl der Nachentladung als auch der Symptomatologie wird stark verlangsamt.

[2] = system: experimentellen Strychninkrampf; experiment: Protection against experimental strychnine convulsions; type: in vivo, Maus; conditions: Mus musculus, po, read-out: ED₅₀
Excerpt: as §1

Metrazol-Antagonismus = experiment: Metrazol antagonism in the mouse; type: in vivo; conditions: po, Maus, read-out: ED₅₀
Excerpt: as §1

[3] = system: Elektroschock-induzierte Konvulsionen; experiment: Protection against electroshock-induced convulsions (mouse); type: in vivo; conditions: po, Maus, read-out: ED₅₀
Excerpt: as §1

[4] = system: Picrotoxin-induzierte Konvulsionen; experiment: Protection against picrotoxin-induced convulsions; type: in vivo; conditions: Maus, doses up to and including 300 mg/kg p.o.
Excerpt: as §1

[5] = system: durch Aluminiumoxidimplantation erzeugten fokalen Konvulsionen; experiment: Focal convulsions produced by aluminium oxide implantation in the rhesus monkey; type: in vivo, Rhesusaffen; conditions: daily doses of 50 mg/kg p.o., over the whole 15-day treatment
Excerpt: as §1

SMILES | ED50 [1] [mg/kg] | ED50 [2] [mg/kg] | ED50 (Metrazol-Antagonismus) [mg/kg] | ED50 [3] [mg/kg] | Schutzwirkung gegen Picrotoxin-induzierte Konvulsionen [4] | Anzahl der fokalen Konvulsionen [5] | Intensität der fokalen Konvulsionen [5]
CCCC(CC)n1nnc(C(N)=O)c1N (stereo not shown) [5-Amino-1-(4-hexyl)-1H-1,2,3-triazol-4-carboxamid] | 50 | 300 | 210 | 100 | keine Wirkung feststellbar | – | –
CCCC(CCC)n1nnc(C(N)=O)c1N [Beispiel 1, 5-Amino-1-(4-heptyl)-1H-1,2,3-triazol-4-carboxamid] | – | – | – | – | – | starke Abnahme | starke Abnahme
